Patent publication US9593108B2, “Compounds and methods for antiviral treatment” (PTC Therapeutics, Inc., priority 2009, dated 2017)

Columns and labels:
[1] = tested on: HCV replicon RNA (GenBank Accession No. AJ242654); test: HCV Replicon Assay (replicon RNA reduction and/or Fluc reporter signal); format: cell-based, Hepatitis C virus; conditions: Hepatitis C virus, 72 h, replicon-containing cells cultured with test compound for up to 3 days
Method in brief: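 IC50 values mostly reflect the drop in replicon RNA, though Fluc reporter signal may also be used. Compound incubated with cells carrying the bicistronic replicon for as long as 3 days; interferon served as positive control.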

Structure (SMILES) | IC50 [1] | melting point
CC(C)(C)NS(=O)(=O)c1ccc(-c2c(C(N)=O)c3cc(C(F)(F)F)cnc3n2C2CCCCC2)cc1 [Cpd 443, 2-[4-(tert-butylsulfamoyl)phenyl]-1-cyclohexyl-5-(trifluoromethyl)-1H-pyrrolo[2,3-b]pyridine-3-carboxamide] | < 500 nM | 290 to 292 °C
C[C@@H](NS(=O)(=O)c1ccc(-c2c(C(N)=O)c3cc(C(F)(F)F)cnc3n2C2CCCCC2)cc1)C(F)(F)F [Cpd 444, 1-cyclohexyl-5-(trifluoromethyl)-2-(4-{[(2R)-1,1,1-trifluoropropan-2-yl]sulfamoyl}phenyl)-1H-pyrrolo[2,3-b]pyridine-3-carboxamide] | < 500 nM | 285 to 287 °C
CC(C)S(=O)(=O)Nc1ccc(-c2c(C(N)=O)c3cc(C(F)(F)F)cnc3n2C2CCCCC2)cc1 [Cpd 446, 1-cyclohexyl-2-{4-[(propan-2-ylsulfonyl)amino]phenyl}-5-(trifluoromethyl)-1H-pyrrolo[2,3-b]pyridine-3-carboxamide] | < 500 nM | 203 to 205 °C
CC1(S(=O)(=O)Nc2ccc(-c3c(C(N)=O)c4cc(C(F)(F)F)cnc4n3C3CCCCC3)cc2)CC1 [Cpd 447, 1-cyclohexyl-2-(4-{[(1-methylcyclopropyl)sulfonyl]amino}phenyl)-5-(trifluoromethyl)-1H-pyrrolo[2,3-b]pyridine-3-carboxamide] | < 500 nM | 268 to 270 °C
NC(=O)c1c(-c2ccc(NS(=O)(=O)C3CC3)cc2)n(C2CCCCC2)c2ncc(C(F)(F)F)cc12 [Cpd 448, 1-cyclohexyl-2-{4-[(cyclopropylsulfonyl)amino]phenyl}-5-(trifluoromethyl)-1H-pyrrolo[2,3-b]pyridine-3-carboxamide] | 500 to 2000 nM | 220 to 222 °C
NC(=O)c1c(-c2ccc(NS(=O)(=O)C3CCC3)cc2)n(C2CCCCC2)c2ncc(C(F)(F)F)cc12 [Cpd 449, 2-{4-[(cyclobutylsulfonyl)amino]phenyl}-1-cyclohexyl-5-(trifluoromethyl)-1H-pyrrolo[2,3-b]pyridine-3-carboxamide] | 500 to 2000 nM | 256 to 258 °C
Cc1cnc2c(c1)c(C#N)c(-c1ccc(S(=O)(=O)N[C@@H](C)C(F)(F)F)cn1)n2-c1nccs1 [Cpd 450, 6-[3-cyano-5-methyl-1-(1,3-thiazol-2-yl)-1H-pyrrolo[2,3-b]pyridin-2-yl]-N-[(2S)-1,1,1-trifluoropropan-2-yl]pyridine-3-sulfonamide] | < 500 nM | 208 to 210 °C
C[C@H](NS(=O)(=O)c1ccc(-c2c(C#N)c3cc(C(F)F)cnc3n2C2CCC2)nc1)C(F)(F)F [Cpd 452, 6-[3-cyano-1-cyclobutyl-5-(difluoromethyl)-1H-pyrrolo[2,3-b]pyridin-2-yl]-N-[(2S)-1,1,1-trifluoropropan-2-yl]pyridine-3-sulfonamide] | < 500 nM | 158 to 159 °C
C[C@H](NS(=O)(=O)c1ccc(-c2c(C#N)c3cc(C(F)F)cnc3n2C2CCC2)cc1)C(F)(F)F [Cpd 453, 4-[3-cyano-1-cyclobutyl-5-(difluoromethyl)-1H-pyrrolo[2,3-b]pyridin-2-yl]-N-[(2S)-1,1,1-trifluoropropan-2-yl]benzenesulfonamide] | < 500 nM | 203 to 205 °C
C[C@H](NS(=O)(=O)c1cnc(-c2c(C#N)c3cc(C(F)F)cnc3n2C2CCC2)nc1)C(F)(F)F [Cpd 454, 2-[3-cyano-1-cyclobutyl-5-(difluoromethyl)-1H-pyrrolo[2,3-b]pyridin-2-yl]-N-[(2S)-1,1,1-trifluoropropan-2-yl]pyrimidine-5-sulfonamide] | < 500 nM | 155 to 156 °C
CC(C)NS(=O)(=O)c1ccc(-c2c(C#N)c3cc(C(F)F)cnc3n2C2CCC2)nc1 [Cpd 455, 6-[3-cyano-1-cyclobutyl-5-(difluoromethyl)-1H-pyrrolo[2,3-b]pyridin-2-yl]-N-(propan-2-yl)pyridine-3-sulfonamide] | < 500 nM | 189 to 190 °C
C[C@H](NS(=O)(=O)c1ccc(-c2c(C#N)c3cc(C(F)F)cnc3n2C2CCC2)nc1)C1CC1 [Cpd 458, 6-[3-cyano-1-cyclobutyl-5-(difluoromethyl)-1H-pyrrolo[2,3-b]pyridin-2-yl]-N-[(1S)-1-cyclopropylethyl]pyridine-3-sulfonamide] | < 500 nM | 164 to 165 °C
CC(C)S(=O)(=O)Nc1ccc(-c2c(C#N)c3cc(C(F)F)cnc3n2C2CCC2)cc1 [Cpd 459, N-{4-[3-cyano-1-cyclobutyl-5-(difluoromethyl)-1H-pyrrolo[2,3-b]pyridin-2-yl]phenyl}propane-2-sulfonamide] | < 500 nM | 179 to 180 °C
N#Cc1c(-c2ccc(NS(=O)(=O)C3CC3)cc2)n(C2CCC2)c2ncc(C(F)F)cc12 [Cpd 460, N-{4-[3-cyano-1-cyclobutyl-5-(difluoromethyl)-1H-pyrrolo[2,3-b]pyridin-2-yl]phenyl}cyclopropanesulfonamide] | < 500 nM | 193 to 195 °C
C[C@H](NS(=O)(=O)c1ccc(-c2c(C#N)c3cc(F)cnc3n2-c2cc(F)ccn2)nc1)C(F)(F)F [Cpd 461, 6-[3-cyano-5-fluoro-1-(4-fluoropyridin-2-yl)-1H-pyrrolo[2,3-b]pyridin-2-yl]-N-[(2S)-1,1,1-trifluoropropan-2-yl]pyridine-3-sulfonamide] | < 500 nM | 186 to 188 °C
C[C@H](NS(=O)(=O)c1ccc(-c2c(C#N)c3cc(F)cnc3n2-c2ncc(F)cn2)nc1)C(F)(F)F [Cpd 462, 6-[3-cyano-5-fluoro-1-(5-fluoropyrimidin-2-yl)-1H-pyrrolo[2,3-b]pyridin-2-yl]-N-[(2S)-1,1,1-trifluoropropan-2-yl]pyridine-3-sulfonamide] | < 500 nM | 180 to 182 °C
Cc1cnc2c(C#N)c(-c3ccc(S(=O)(=O)N[C@@H](C)C(F)(F)F)cn3)n(-c3cnccn3)c2c1 [Cpd 463, 6-[3-cyano-6-methyl-1-(pyrazin-2-yl)-1H-pyrrolo[3,2-b]pyridin-2-yl]-N-[(2S)-1,1,1-trifluoropropan-2-yl]pyridine-3-sulfonamide] | < 500 nM | 288 to 289 °C
Cc1cnc2c(C#N)c(-c3ccc(S(=O)(=O)N[C@@H](C)C(F)(F)F)cn3)n(-c3cncnc3)c2c1 [Cpd 464, 6-[3-cyano-6-methyl-1-(pyrimidin-5-yl)-1H-pyrrolo[3,2-b]pyridin-2-yl]-N-[(2S)-1,1,1-trifluoropropan-2-yl]pyridine-3-sulfonamide] | 2000 to 5000 nM | 229 to 230 °C
Cc1cnc2c(C#N)c(-c3ccc(S(=O)(=O)N[C@@H](C)C(F)(F)F)cn3)n(-c3ccccn3)c2c1 [Cpd 465, 6-[3-cyano-6-methyl-1-(pyridin-2-yl)-1H-pyrrolo[3,2-b]pyridin-2-yl]-N-[(2S)-1,1,1-trifluoropropan-2-yl]pyridine-3-sulfonamide] | < 500 nM | 242 to 244 °C
Cc1cnc2c(C#N)c(-c3ccc(S(=O)(=O)N[C@@H](C)C(F)(F)F)cn3)n(-c3cccnc3)c2c1 [Cpd 466, 6-[3-cyano-6-methyl-1-(pyridin-3-yl)-1H-pyrrolo[3,2-b]pyridin-2-yl]-N-[(2S)-1,1,1-trifluoropropan-2-yl]pyridine-3-sulfonamide] | < 500 nM | 278 to 279 °C
Cc1cnc2c(C#N)c(-c3ccc(S(=O)(=O)N[C@@H](C)C(F)(F)F)cn3)n(-c3ccc(F)cn3)c2c1 [Cpd 467, 6-[3-cyano-1-(5-fluoropyridin-2-yl)-6-methyl-1H-pyrrolo[3,2-b]pyridin-2-yl]-N-[(2S)-1,1,1-trifluoropropan-2-yl]pyridine-3-sulfonamide] | < 500 nM | 263 to 265 °C
Cc1cnc2c(C#N)c(-c3ccc(S(=O)(=O)N[C@@H](C)C(F)(F)F)cn3)n(-c3cscn3)c2c1 [Cpd 468, 6-[3-cyano-6-methyl-1-(1,3-thiazol-4-yl)-1H-pyrrolo[3,2-b]pyridin-2-yl]-N-[(2S)-1,1,1-trifluoropropan-2-yl]pyridine-3-sulfonamide] | < 500 nM | 244 to 245 °C
C[C@H](NS(=O)(=O)c1ccc(-c2c(C(N)=O)c3cc(C(F)F)cnc3n2C2CCC2)nc1)C(F)(F)F [Cpd 469, 1-cyclobutyl-5-(difluoromethyl)-2-(5-{[(2S)-1,1,1-trifluoropropan-2-yl]sulfamoyl}pyridin-2-yl)-1H-pyrrolo[2,3-b]pyridine-3-carboxamide] | < 500 nM | 206 to 208 °C
C[C@H](NS(=O)(=O)c1cnc(-c2c(C(N)=O)c3cc(C(F)F)cnc3n2C2CCC2)nc1)C(F)(F)F [Cpd 470, 1-cyclobutyl-5-(difluoromethyl)-2-(5-{[(2S)-1,1,1-trifluoropropan-2-yl]sulfamoyl}pyrimidin-2-yl)-1H-pyrrolo[2,3-b]pyridine-3-carboxamide] | < 500 nM | 199 to 201 °C
CC(C)(NS(=O)(=O)c1ccc(-c2c(C(N)=O)c3cc(C(F)F)cnc3n2C2CCC2)nc1)C(F)(F)F [Cpd 471, 1-cyclobutyl-5-(difluoromethyl)-2-{5-[(1,1,1-trifluoro-2-methylpropan-2-yl)sulfamoyl]pyridin-2-yl}-1H-pyrrolo[2,3-b]pyridine-3-carboxamide] | < 500 nM | 205 to 207 °C
NC(=O)c1c(-c2ccc(S(=O)(=O)NC3(C(F)(F)F)CC3)cn2)n(C2CCC2)c2ncc(C(F)F)cc12 [Cpd 472, 1-cyclobutyl-5-(difluoromethyl)-2-(5-{[1-(trifluoromethyl)cyclopropyl]sulfamoyl}pyridin-2-yl)-1H-pyrrolo[2,3-b]pyridine-3-carboxamide] | < 500 nM | 210 to 212 °C
CCc1cnc2c(c1)c(C#N)c(-c1ccc(S(=O)(=O)N[C@@H](C)C(F)(F)F)cn1)n2-c1ncc(F)cn1 [Cpd 473, 6-[3-cyano-5-ethyl-1-(5-fluoropyrimidin-2-yl)-1H-pyrrolo[2,3-b]pyridin-2-yl]-N-[(2S)-1,1,1-trifluoropropan-2-yl]pyridine-3-sulfonamide] | < 500 nM | 175 to 177 °C
